Values of other authors, collected in patent US20040087644A1, “Pharmaceutical composition in capsules that comprises a non-steroidal antiinflamatory and an optiate analgesic for handling pain” (Leopoldo Espinosa Abdala, priority 2002, published 2004).

Tests used:
[1] = in vivo
[2] = tested on: pain; conditions: clinical studies, compared with opiates

dose excreted through the urine without changes [1]: About 90%
Structure (SMILES): O=C(c1ccccc1)c1ccc2n1CCC2C(=O)O (centres unmarked) [Ketorolac]
analgesic efficiency [2]: comparable with opiates
